From paper PMC9315496, “A Comparison of the Photophysical, Electrochemical and Cytotoxic Properties of meso-(2-, 3- and 4-Pyridyl)-BODIPYs and Their Derivatives” (Sensors (Basel, Switzerland), 2022)
Like-named read-outs stand apart in the source and are kept apart here. Marks after values point to notes of the source that are not given here.

What was measured:
[1] = cited from earlier work
[2] = system: HEp2 cells; assay: Dark cytotoxicity, Cell Titer Blue; type: cell-based; conditions: Homo sapiens, HEp-2, 24 h incubation, read-out: Dark Toxicity (IC50)
Description: (§1) Human carcinoma HEp2 cells were obtained from ATCC and maintained in a 75 cm^2 flask (Chemglass) with 1× MEM (Eagle’s minimal essential medium) containing 10% FBS (fetal bovine serum) and 1% antibiotic (penicillin–streptomycin) in a humidified, 5% CO2 incubator at 37 °C. Stock solutions with a concentration of 32 mM in DMSO were prepared for each BODIPY. The stock solution was diluted to the final working concentrations with culture medium. The HEp2 cells were plated at 7500–10,000 cells per well in a Costar 96-well plate and allowed to grow for 24 h. The BODIPY stock solution was diluted to a 200 μM working solution and two-fold serial dilutions were prepared with final concentrations of 200, 100, 50, 25, 12.5, 6.25, and 0 μM. Each BODIPY was incubated for 24 h at 37 °C under 5% CO2. For the dark cytotoxicity experiments, after incubation, excess BODIPY was removed by washing the cells three times with 1× PBS (phosphate-buffered saline) and replacing with media containing 20% Cell Titer Blue (Promega, Madison, WI, USA). The cells were then incubated for additional 24 h at 37 °C under 5% CO2 and the cell toxicity was determined by fluorescence intensity at ex 570/em 615 nm using a FluoStar Optima microplate reader (BMG Labtech, Cary, NC, USA).

[3] = system: HEp2 cells; assay: Phototoxicity (1.5 J/cm^2), Cell Titer Blue; type: cell-based; conditions: Homo sapiens, HEp-2, light or radiation study, light dose 1.5 J/cm^2
Description: as §1
For the phototoxicity experiments, after incubation the cells were exposed to a light dose of ~1.5 J/cm^2 generated using a 600 W Quartz Tungsten Halogen lamp (Newport Corporation, Irvine, CA, USA). The cells were exposed for 20 min while the 96-well plate rested on an EchoTherm chilling plate (Torrey Pines Scientific, Carlsbad, CA, USA) set to 5 °C. Following light exposure, the loading media was removed and media containing 20% Cell Titer Blue was added. After incubation for 24 h at 37 °C under 5% CO2, the cell viability was determined as described above.

[4] = Cyclic voltammetry; type: physicochemical
Source text: Cyclic voltammograms were collected on a Biologic SP-300 potentiostat using a three-electrode setup with a platinum working electrode (2 mm diameter, CH Instruments), platinum counter electrode (2 mm diameter, CH Instruments), and a silver wire pseudo reference-electrode stored in 0.25 M NBu4PF6 in anhydrous acetonitrile and separated from the electrochemical cell by a glass frit. The electrochemical cell was composed of a borosilicate glass scintillation vial with a custom-machined cap. Working electrodes were polished and then pre-treated by cycling between upper and lower boundaries of the electrochemical window for the experiment in a solution containing only the electrolyte. Measurements were taken in a solution of 0.25 M recrystallized NBu4PF6 in dried and degassed anhydrous acetonitrile. BODIPYs were added to 5 mL of electrolyte solution to give a concentration of 1 mM. Each solution also contained 1 mM ferrocene as an internal reference. Solutions were sparged with N2 before each measurement.

[5] = UV-vis absorption and emission spectroscopy, relative fluorescence quantum yields; type: physicochemical; conditions: for λabs / λem: room temperature; for Φf (relative fluorescence quantum yield): standard Ru(bpy)Cl2.6H2O (Φf = 0.028) in H2O, λexc = 436 nm; for Фf (relative fluorescence quantum yield): standard rhodamine-6G (Ф = 0.86) in methanol, λexc = 473 nm
Description: UV−vis absorption spectra were collected on a Varian Cary 50 Bio spectrophotometer. Emission spectra were obtained on a PerkinElmer LS55 spectrophotometer, at room temperature. Spectrophotometric grade solvents and quartz cuvettes (1 cm path length) were used. Relative fluorescence quantum yields (Φf) were calculated using rhodamine 6G (Φf = 0.86 in methanol) as reference for the neutral BODIPYs and Ru(bpy)Cl2.6H2O (Φf = 0.028 in water) as the standard for the cationic BODIPYs using the following equation: Φx = Φst × Gradx/Gradst × (ηx/ηst)^2, where the ΦX and ΦST are the quantum yields of the sample and standard, GradX and GradST are the gradients from the plot of integrated fluorescence intensity vs. absorbance, and η represents the refractive index of the solvent (x is for the sample and st for the standard).

[6] = vs. Fc^+/Fc, 100 mV/s, acetonitrile, 0.25 M NBu4PF6

Row | Stokes Shift ([5]; CH3CN) | ε (molar extinction coefficient) ([5]; CH3CN) | λabs ([5]; CH3CN) | λem ([5]; CH3CN) | Stokes Shift ([5]; CH3OH) | labs ([5]; CH3OH) | lem ([5]; CH3OH) | ε (molar extinction coefficient) ([5]; CH3OH) | Фf (relative fluorescence quantum yield) ([5]; CH3OH) | Structure (SMILES) | IC50 [2] | IC50 [3] | other results
1 | 20 nm | 43,160 M^−1 cm ^−1 | 540 nm | 560 nm |  |  |  |  |  | CC1=C(Cl)C(C)=[N+]2C1=C(c1ccc[n+](C)c1)c1c(C)c(Cl)c(C)n1[B-]2(F)F [3catPyCl2, 2,6-Dichlo-8-(N-methyl-3-pyridyl)-1,3,5,7-tetramethyl-BODIPY] | 120 µM | > 100 µM | first reduction wave shift positive compared with the unchlorinated BODIPY [4]: 240 mV; second reduction wave shift positive compared with the unchlorinated BODIPY [4]: 120 mV; anodic peak shift positive compared with the corresponding unchlorinated BODIPY ([4]; 100 mV/s): 160 mV; E1/2ox (oxidation peak potential only, irreversible wave) [4, 6]: +1.10 ^c V; E1/2red, first one-electron reduction [4, 6]: −1.02 V; E1/2red, second one-electron reduction [4, 6]: −1.42 V; Φf (relative fluorescence quantum yield) ([5]; CH3CN): 0.23 ^b; Stokes Shift ([5]; H2O): 24 nm; ε (molar extinction coefficient) ([5]; H2O): 35,180 M^−1 cm ^−1; λabs ([5]; H2O): 540 nm; λem ([5]; H2O): 564 nm; Φf (relative fluorescence quantum yield) ([5]; H2O): 0.47; Φf (relative fluorescence quantum yield) ([5]; H2O, listed as 3catPyCl2 (I^−)): 0.47 ^b; fluorescence enhancement relative to the non-chlorinated pyridinium BODIPY ([5]; acetonitrile): 38 fold; fluorescence enhancement relative to the non-chlorinated pyridinium BODIPY ([5]; water): 100 fold
2 | 12 nm | 92,900 M^−1 cm ^−1 | 502 nm | 514 nm | 12 nm | 503 nm | 515 nm | 98140 M-1 cm -1 | 0.34 | CC1=CC(C)=[N+]2C1=C(c1cccnc1)c1c(C)cc(C)n1[B-]2(F)F [3Py] | > 200 µM | > 100 µM | 
3 | 15 nm | 57,540 M^−1 cm ^−1 | 527 nm | 542 nm | 16 nm | 530 nm | 546 nm | 66880 M-1 cm -1 | 0.57 | CC1=C(Cl)C(C)=[N+]2C1=C(c1cccnc1)c1c(C)c(Cl)c(C)n1[B-]2(F)F [3PyCl2, 2,6-Dichloro-8-(3-pyridyl)-1,3,5,7-tetramethyl-BODIPY] | 200 µM | > 100 µM | 

Further lines, the molecule ahead of its results:

Row | Structure (SMILES) | Stokes Shift ([5]; CH3CN) | ε (molar extinction coefficient) ([5]; CH3CN) | λabs ([5]; CH3CN) | λem ([5]; CH3CN) | Stokes Shift ([5]; CH3OH) | labs ([5]; CH3OH) | lem ([5]; CH3OH) | ε (molar extinction coefficient) ([5]; CH3OH) | Фf (relative fluorescence quantum yield) ([5]; CH3OH) | IC50 [2] | IC50 [3] | other results
4 | O.O.O.O.O.O.[Cl-].[Cl-].[Ru+2].c1ccc(-c2ccccn2)nc1.c1ccc(-c2ccccn2)nc1.c1ccc(-c2ccccn2)nc1 [Ru(bpy)Cl2.6H2O, reference compound] |  |  |  |  |  |  |  |  |  |  |  | Φf of the reference standard ([1]; in water): 0.028
5 | CC1=CC(C)=[N+]2C1=C(c1ccncc1)c1c(C)cc(C)n1[B-]2(F)F [4Py] |  |  |  |  |  |  |  |  |  | > 200 µM | > 100 µM | Stokes Shift ([1]; CH3CN): 14 nm; Φf (fluorescence quantum yield) ([1]; CH3CN): 0.31; ε (molar extinction coefficient) ([1]; CH3CN): 72,100 M^−1 cm ^−1; λabs ([1]; CH3CN): 501 nm; λem ([1]; CH3CN): 515 nm
6 | CC1=CC(C)=[N+]2C1=C(c1cccc[n+]1C)c1c(C)cc(C)n1[B-]2(F)F [2catPy, 1,3,5,7-Tetramethyl-8-(N-methyl-2-pyridyl)-BODIPY Iodide] | 24 nm | 65,800 M^−1 cm ^−1 | 520 nm | 544 nm |  |  |  |  |  | > 200 µM | > 100 µM | first reduction, more negative than the two-electron reduction in 4catPy [4]: 30 mV; oxidation potential shift positive compared with 4catPy and 3catPy [4]: 100 mV; second reduction, more negative than the two-electron reduction in 4catPy [4]: 230 mV; E1/2red, first one-electron reduction [4, 6]: −1.09 V; E1/2red, second one-electron reduction [4, 6]: −1.29 V; E1/2ox ([4]; vs. Fc^+/Fc, 100 mV/s, acetonitrile, 0.25 M NBu4PF6, PF6^− counterion): ~+0.99 ^a V; Φf (relative fluorescence quantum yield) ([5]; CH3CN): 0.13 ^b; Stokes Shift ([5]; H2O): 22 nm; ε (molar extinction coefficient) ([5]; H2O): 52,380 M^−1 cm ^−1; λabs ([5]; H2O): 520 nm; λem ([5]; H2O): 542 nm; Φf (relative fluorescence quantum yield) ([5]; H2O): 0.001 ^b; bathochromic shift of maximum absorption wavelength upon methylation ([5]; acetonitrile, experimental): 18 nm
7 | CC/N=c1\cc2oc3cc(NCC)c(C)cc3c(-c3ccccc3C(=O)OCC)c-2cc1C [rhodamine 6G, reference compound] |  |  |  |  |  |  |  |  |  |  |  | Φf of the reference standard ([1]; in methanol): 0.86
8 | CC1=C(Cl)C(C)=[N+]2C1=C(c1cc[n+](C)cc1)c1c(C)c(Cl)c(C)n1[B-]2(F)F [4catPyCl2] |  |  |  |  |  |  |  |  |  |  |  | two-electron reduction shift positive compared with 4catPy [4]: 180 mV; anodic peak shift positive compared with the corresponding unchlorinated BODIPY ([4]; 100 mV/s): 180 mV; E1/2red, two-electron reduction to doubly reduced state [4, 6]: −0.89 ^e V; E1/2ox ([4]; vs. Fc^+/Fc, value at 1 V/s, acetonitrile, 0.25 M NBu4PF6): +1.03 ^d V; fluorescence enhancement relative to the non-chlorinated pyridinium BODIPY ([5]; water): 10 fold; Stokes Shift ([1]; CH3CN): 62 nm; Φf (fluorescence quantum yield) ([1]; CH3CN): 0.048; ε (molar extinction coefficient) ([1]; CH3CN): 23,400 M^−1 cm ^−1; λabs ([1]; CH3CN): 538 nm; λem ([1]; CH3CN): 600 nm; Stokes Shift ([1]; H2O): 65 nm; Φf (fluorescence quantum yield) ([1]; H2O): 0.038; ε (molar extinction coefficient) ([1]; H2O): 11,640 M^−1 cm ^−1; λabs ([1]; H2O): 540 nm; λem ([1]; H2O): 605 nm
9 | CC1=CC(C)=[N+]2C1=C(c1ccccn1)c1c(C)cc(C)n1[B-]2(F)F [2Py] | 12 nm | 87,500 M^−1 cm ^−1 | 502 nm | 514 nm | 10 nm | 504 nm | 514 nm | 119800 M-1 cm -1 | 0.13 | > 200 µM | > 100 µM | 
10 | CC1=C(Cl)C(C)=[N+]2C1=C(c1ccncc1)c1c(C)c(Cl)c(C)n1[B-]2(F)F [4PyCl2] |  |  |  |  |  |  |  |  |  |  |  | Stokes Shift ([1]; CH3CN): 18 nm; Φf (fluorescence quantum yield) ([1]; CH3CN): 0.58; ε (molar extinction coefficient) ([1]; CH3CN): 50,800 M^−1 cm ^−1; λabs ([1]; CH3CN): 528 nm; λem ([1]; CH3CN): 546 nm
11 | CC1=C(Cl)C(C)=[N+]2C1=C(c1ccccn1)c1c(C)c(Cl)c(C)n1[B-]2(F)F [2PyCl2, 2,6-Dichloro-8-(2-pyridyl)-1,3,5,7-tetramethyl-BODIPY] | 15 nm | 64,280 M^−1 cm ^−1 | 530 nm | 545 nm | 17 nm | 531 nm | 548 nm | 69940 M-1 cm -1 | 0.23 | > 200 µM | > 100 µM | 
